Assay results reported in patent US9797913B2, “Alzheimer's disease-specific alterations of the ERK1/ERK2 phosphorylation ratio-alzheimer's disease-specific molecular biomarkers (ADSMB)” (BLANCHETTE ROCKEFELLER NEUROSCIENCES INSTITUTE, priority 2005, dated 2017).
Entries after “also recorded” stand apart in the source; their conditions may differ.

Columns and labels:
[1] = system: Erk1/Erk2 phosphorylation ratio in Aβ(1-42)-treated human fibroblasts; test: Bryostatin reversal of the Aβ(1-42)-induced Alzheimer's phenotype (ADSMB) in control fibroblasts; assay type: cell-based; settings: AC cell lines, 1.0 μM Aβ(1-42) 24 hrs followed by 0.1 nM bryostatin 20 min
Procedure: Preparation of Aβ(1-42) solution: Initially 1 mg of Aβ(1-42) was dissolved in hexa-fluoroisopropanol (Sigma, St. Louis, Mo.) at a concentration of 3 mM and separated into aliquots in sterile microcentrifuge tubes. Hexa-fluoroisopropanol was removed under vacuum and lyophilized. The Aβ(1-42) films were stored at −20° C. under dry conditions until use. 5 mM Aβ(1-42) stock solution was prepared from the stored Aβ(1-42) in DMSO just before the experiment. 1.0 μM stock solution was prepared in DMEM medium (supplemented with 10% serum and penicillin/streptomycin) by dissolving Aβ(1-42) from a DSMO stock solution. […] Total Erk1, Erk2 and the phosphorylated forms of Erk1 and Erk2 (p-Erk1, p-Erk2) were determined using specific antibodies: anti-regular Erk1/2 and anti-phospho ERK1/2. […]
Signals of the Western blot protein bands were scanned with a Fuji LAS-1000 Plus scanner. The intensity of Erk1, Erk2, p-Erk1 and p-Erk2 were measured from scanned protein bands by a specially designed software developed by Dr. Nelson in our Institute (Blanchette Rockefeller Neurosciences Institute, Rockville, Md.). The intensity was measured by strip densitometry. The protein bands were selected by strip and each pixel density was calculated after background subtraction by the software. The ratios of p-Erk1/p-Erk2 were calculated from sample (BK+) and control (BK−) respectively. […]

[2] = system: Aβ(1-42) levels in the brains; settings: transgenic mice with human AD genes; cited from earlier work
AD-transgenic mice = settings: chronic exposure; cited from earlier work
PKC = settings: human fibroblasts; cited from earlier work
[3] = system: Erk1/Erk2 phosphorylation ratio in non-AD control (AC) cells; test: Aβ(1-42) induction of the Alzheimer's phenotype (ADSMB, bradykinin-induced p-Erk1/p-Erk2 ratio) in control fibroblasts; assay type: cell-based, human; settings: for ADSMB: then 10 nM bradykinin 10 min
Procedure: Preparation of Aβ(1-42) solution: Initially 1 mg of Aβ(1-42) was dissolved in hexa-fluoroisopropanol (Sigma, St. Louis, Mo.) at a concentration of 3 mM and separated into aliquots in sterile microcentrifuge tubes. Hexa-fluoroisopropanol was removed under vacuum and lyophilized. The Aβ(1-42) films were stored at −20° C. under dry conditions until use. 5 mM Aβ(1-42) stock solution was prepared from the stored Aβ(1-42) in DMSO just before the experiment. 1.0 μM stock solution was prepared in DMEM medium (supplemented with 10% serum and penicillin/streptomycin) by dissolving Aβ(1-42) from a DSMO stock solution. DMEM medium containing 1.0 μM Aβ(1-42) was added to non-AD control (AC) cells at 90-100% confluence stage in 25 mL cultured flask and kept at cell culture incubator (at 37° C. with 5% CO2) for 24 hrs. Cells were ‘starved’ in serum free medium (DMEM) for 16 hours. 10 nM bradykinin (in DMSO) solution was prepared in DMEM medium with 10% serum. 7 mL of 10 nM BK solution were added to the 25 mL cultured flask and incubated at 37° C. for 10 min. For the controls, the same amount of DMSO was added in DMEM medium with 10% serum. 7 mL of this medium with DMSO (<0.01%) were added to the 25 mL cultured flask and incubated at 37° C. for 10 min. After washing four times with cold (4° C.) 1×PBS, flasks were kept in a dry ice/ethanol mixture for 15 min. Flasks were removed from the dry ice/ethanol mixture and then 100 μL of lysis buffer (10 mM Tris, pH 7.4, 150 mM NaCl, 1 mM EDTA, 1 mM EGTA, 0.5% NP-40, 1% Triton X-100, 1% protease inhibitor cocktail, 1% ser/thr/tyrosine phosphatase inhibitor cocktails) was added into each flask. Flasks were kept on an end-to end shaker in a cold room (4° C.) for 30 min and cells were collected from each flask with a cell scraper. Cells were sonicated and then centrifuged at 14000 rpm for 15 min, and the supernatant was used for Western blotting after total protein assay. Total Erk1, Erk2 and the phosphorylated forms of Erk1 and Erk2 (p-Erk1, p-Erk2) were determined using specific antibodies: anti-regular Erk1/2 and anti-phospho ERK1/2. At least three bradykinin treated flasks (BK+) and correspondingly three control flasks (BK−) were included for each cell line to minimize errors in measurement.
Signals of the Western blot protein bands were scanned with a Fuji LAS-1000 Plus scanner. The intensity of Erk1, Erk2, p-Erk1 and p-Erk2 were measured from scanned protein bands by a specially designed software developed by Dr. Nelson in our Institute (Blanchette Rockefeller Neurosciences Institute, Rockville, Md.). The intensity was measured by strip densitometry. The protein bands were selected by strip and each pixel density was calculated after background subtraction by the software. The ratios of p-Erk1/p-Erk2 were calculated from sample (BK+) and control (BK−) respectively. The following formula was used to distinguish between AD and non-AD cases: ADSMB=[p-Erk1/p-Erk2]^BK+−[p-Erk1/p-Erk2]^BK− ADSMB=Alzheimer's Disease-Specific Molecular Biomarker

CCC/C=C/C=C/C(=O)O[C@H]1/C(=C/C(=O)OC)C[C@H]2C[C@H]([C@@H](C)O)OC(=O)C[C@H](O)C[C@@H]3C[C@H](OC(C)=O)C(C)(C)[C@](O)(C[C@@H]4C/C(=C/C(=O)OC)C[C@H](/C=C/C(C)(C)[C@]1(O)O2)O4)O3 [Bryostatin]
ADSMB after Aβ(1-42) then bryostatin treatment (in words) [1]: entirely reversed
ADSMB after Aβ(1-42) then bryostatin treatment (in words) ([1]; listed as bryostatin): small and negative
Aβ(1-42) levels in the brains [2]: reduce Aβ(1-42) levels
survival (AD-transgenic mice): greatly increased survival
PKC activation (PKC): enhance PKC activation

Beta amyloid (1-42) [Aβ]
ADSMB Average ± SE ([3]; average of AC cell lines, 1.0 μM Aβ(1-42) 24 hrs, P < 0.001 vs control): 0.13 ± 0.01
ADSMB ([3]; cell line AG06959, 1.0 μM Aβ(1-42) 24 hrs): 0.13
ADSMB ([3]; cell line AG07732, 1.0 μM Aβ(1-42) 24 hrs): 0.12
ADSMB ([3]; cell line AG09977, 1.0 μM Aβ(1-42) 24 hrs): 0.13
ADSMB ([3]; cell line AG11363, 1.0 μM Aβ(1-42) 24 hrs): 0.16
ADSMB after Aβ(1-42) treatment (in words) ([3]; control (non-AD) cell lines, 1.0 μM Aβ(1-42), 24 hours): abnormal positively valued ADSMB phenotype; also recorded: higher and positive
